Source: ChEMBL document CHEMBL1123992, “Benzo[1,2-c:5,4-c']dipyrazoles: non-xanthine adenosine antagonists” (J Med Chem, 1988)

How the values were obtained:
[1] = target: Adenosine A2 receptor (Homo sapiens, UniProt P29275+P29274); assay: In vitro binding affinity to Adenosine A2 receptor of human platelets by inhibition of NECA-stimulated adenylate cyclase; type: functional
[2] = target: T1, Adenosine receptor A1 (Rattus norvegicus, UniProt P25099); assay: In vitro binding affinity to Adenosine A1 receptor of rat cerebral cortical membranes using 1 nM [3H]PIA
T1 sequence (P25099 whole entry): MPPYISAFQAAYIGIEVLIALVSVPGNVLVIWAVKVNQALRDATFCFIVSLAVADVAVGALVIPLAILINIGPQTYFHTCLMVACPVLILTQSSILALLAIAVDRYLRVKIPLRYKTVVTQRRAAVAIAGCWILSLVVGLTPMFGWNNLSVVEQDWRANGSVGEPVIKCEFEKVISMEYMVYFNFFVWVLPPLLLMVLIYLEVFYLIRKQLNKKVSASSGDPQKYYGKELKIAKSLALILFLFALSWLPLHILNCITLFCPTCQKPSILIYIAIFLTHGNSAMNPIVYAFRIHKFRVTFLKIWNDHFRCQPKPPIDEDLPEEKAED

[3] = species on record: Cavia porcellus; assay: Reversal of spasmogen-induced contraction of guinea pig cylindrical tracheal segments induced by 5-hydroxytryptamine (2x 10e-6 M); type: functional; details: Trachea, read-out: ED50 (the source's name)
[4] = species on record: Cavia porcellus; assay: Reversal of spasmogen-induced contraction of guinea pig cylindrical tracheal segments induced by histamine (1x […] -5 M); type: functional; details: Trachea, read-out: ED50 (the source's name)
[5] = species on record: Cavia porcellus; assay: Reversal of spasmogen-induced contraction of guinea pig cylindrical tracheal segments induced by Carbachol (7.4 x 10e -7 M); type: functional; details: Trachea, read-out: ED50 (the source's name)
[6] = species on record: Cavia porcellus; assay: Reversal of spasmogen-induced contraction of guinea pig cylindrical tracheal segments induced by acetylcholine (1 x 10e -5 M); type: functional; details: Trachea, read-out: ED50 (the source's name)
[7] = target: T1, Adenosine receptor A1; assay: Binding of 1 nM [3H]CHA to Adenosine A1 receptor of rat cerebral cortical membranes; type: cell membranes, Membrane
[8] = target: Adenosine A2 receptor (Rattus norvegicus, UniProt P29276+P30543); assay: Inhibition of adenosine stimulated accumulation of cyclic AMP at Adenosine A2 receptor of VA13 fibroblasts of rat; type: functional
[9] = species on record: Cavia porcellus; assay: Reversal of spasmogen-induced contraction of guinea pig cylindrical tracheal segments induced by histamine (1 x 10e -5 M); type: functional; details: Trachea, read-out: ED50 (the source's name)
[10] = target: Adenosine A2 receptor (Cavia porcellus); assay: Inhibition of 2-CADO-stimulated adenylate cyclase at Adenosine A2 receptor in guinea pig cerebral cortical slices
[11] = species on record: Cavia porcellus; assay: Reversal of spasmogen-induced contraction of guinea pig cylindrical tracheal segments induced by Carbachol (7.4x 10e-7 M); type: functional; details: Trachea, read-out: ED50 (the source's name)
[12] = species on record: Cavia porcellus; assay: Reversal of spasmogen-induced contraction of guinea pig cylindrical tracheal segments induced by acetylcholine (1*10e-5 M); type: functional; details: Trachea, read-out: ED50 (the source's name)

| Compound | Ki [1] [µM] | Ki [2] [µM] | EC50 [3] [µM] | EC50 [4] [µM] | EC50 [6] [µM] | also measured |
| --- | --- | --- | --- | --- | --- | --- |
| Cc1nn(C)c2cc3c(cc12)c(C)nn3C | 80 | > 100 | 17 | 75 |  |  |
| CCn1nc(C)c2cc3c(C)nn(CC)c3cc21 | 56 | 27 | 1.3 | 5.2 |  | EC50 [5]: 11 µM |
| Cc1n[nH]c2c(C)c3[nH]nc(C)c3cc12 | 4.8 | 1.2 | 4.6 | 24 | 8.5 |  |
| Cn1c(=O)[nH]c2[nH]cnc2c1=O [1-METHYLXANTHINE] |  |  |  |  |  | Ki [7]: 9 µM; Ki [8]: 6.6 µM |
| Cc1n[nH]c2c(Br)c3[nH]nc(C)c3cc12 |  |  | 0.9 |  | 2 | EC50 [9]: 3 µM |
| CCn1c(=O)c2nc[nH]c2n(CC)c1=O |  |  |  |  |  | Ki [8]: 1.2 µM; Ki [10]: 3 µM |
| Cn1c(=O)c2[nH]cnc2n(C)c1=O [AMINOPHYLLINE] |  |  | 21 | 42 | 57 |  |
| Cc1nn(C)c2c(C)c3c(cc12)c(C)nn3C | 170 | 54 | 20 | 38 |  | EC50 [5]: 9.6 µM |
| CCn1nc(C)c2cc3c(C)nn(CC)c3c(C)c21 | 53 | 20 |  | 4.1 | 4.3 | EC50 [11]: 1 µM |
| Cc1n[nH]c2cc3[nH]nc(C)c3cc12 | 25.6 | 8 | 2 |  |  | EC50 [12]: 4 µM; EC50 [9]: 1.4 µM |
| O=c1[nH]c(=O)c2nc[nH]c2[nH]1 [XANTHINE] |  |  |  |  |  | Ki [8]: 130 µM |
| CCCn1nc(C)c2cc3c(C)nn(CCC)c3cc21 | 32 | 10.5 | 13 | 41 |  | EC50 [5]: 69 µM |
| Cc1n[nH]c2c([N+](=O)[O-])c3[nH]nc(C)c3cc12 | 14.4 | 1.9 | 1.5 | 6.4 | 25 |  |
